Assay results reported in patent US20150147411A1, “COMPOSITION FOR PREVENTING OR TREATING COLITIS COMPRISING S-ALLYL-L-CYSTEINE AS ACTIVE INGREDIENT, AND MEDICAL PREPARATION COMPRISING SAME” (PHARMAKING CO., LTD., priority 2012, published 2015).

Key:
Format in all cases: in vivo, C57BL6 mice
[1] = Body weight of mice pre-treated with compositions, DSS-induced colitis
Protocol: In this experiment, C57BL6 mice were employed for the following reasons. The experimental animals are widely used throughout the world and are evaluated as being suitable for validity assays. In addition, because a great amount of fundamental test data on various disease models of the animals has been accumulated, the data can be utilized in analyzing and assessing test results. When purchased from OrientBio Inc. the experimental animals weighed 18 g±20%. They were bred under a light intensity of 150˜300 Lux in the controlled condition of 12:12-h light-dark cycles, with at least 10 ventilation rounds per hour.
(§1) For use in testing therapeutic effects of the agents of Examples, Comparative Examples, and Control Examples, the mice (G1 to G7) were fed with a 2.5 wt % aqueous dextran sodium sulfate (DSS) solution to induce inflammatory bowel disease therein.
Weights are expressed as mean±standard deviation.
From Jan. 12, 2012, the mice were allowed to drink an aqueous DSS 2.5 wt % solution for 7 days. DSS-induced diarrhea or hematochezia caused mice in groups G2 to G7 to lose weight, as compared at the point of DSS treatment.

[2] = Side effects of S-allyl-L-cysteine
Text: Cyclosporine or prednisolone, which are […] used to treat colitis thanks to their immunosuppressive effects, are reported to have the side effect of weight gain.
The anti-inflammatory agents including mesalizine or mesalazine, NSAIDs, etc. are known to cause various side effects such as hypersensitive reactions, nausea, vomiting, headache, etc.

[3] = system: COX-2; assay: COX-2 expression in colon tissue by immunofluorescence
Protocol: as §1
The immunofluorescence of COX-2 was performed on paraffin unstained slides of animal tissues.

[4] = system: IL-1β; assay: Level of inflammatory cytokine IL-1β; details: G3 to G6 (12.5-100 mg/kg), FIG. 7, equivalency to control G7
Protocol: as §1
(§2) Levels of IL-1β IL-6, IL-12, and TNF-α, which are representative inflammation-inducing cytokines, were measured. […] The observation results are depicted in […].

[5] = system: dextran sodium sulfate (DSS)-induced colitis mouse models; assay: Disease Activity Index (DAI) score, DSS-induced colitis
Text: as §1
(§3) At the end of the test, Disease Activity Index (DAI) Scores were made in consideration of the degree of hematochezia and diarrhea, and are depicted in FIG. 3. In the graph, # represents significance (p<0.0001) compared to the normal (G1), and * represents significance (p<0.05), compared to the colitis animal model.

[6] = system: dextran sodium sulfate (DSS)-induced colitis mouse models; assay: Colon length from cecum to end of colon, DSS-induced colitis; details: G3 to G6 (12.5-100 mg/kg) compared to Comparative Example, with statistical significance, FIG. 4
Text: as §1
After 7 days of DSS drinking, the mice were sacrificed in an ether anesthetized condition, and the colon was excised.
as §3

[7] = system: IL-12; assay: Level of inflammatory cytokine IL-12; details: G3 to G6 (12.5-100 mg/kg), FIG. 10, equivalency to control G7
Protocol: as §1, §2

[8] = system: IL-6; assay: Level of inflammatory cytokine IL-6; details: G3 to G6 (12.5-100 mg/kg), FIG. 8, equivalency to control G7
Protocol: as §1, §2

[9] = system: dextran sodium sulfate (DSS)-induced colitis mouse models; assay: Pathological observation of colon by H&E staining, total pathologic score
Protocol: as §1
Colon specimens taken were fixed in a 10% formalin solution and stained with hematoxylin & eosin (H&E stain), and their images are given in FIG. 5. Further, they were evaluated through a blind test under the criteria of a total of six histopathological opinions on inflammation (inflammation, follicle aggregation, oedema, erosion/ulceration, crypt loss, and infiltration of mono- and polymorphonuclear cells), and scored. Total pathologic scores obtained by summing up scores for each items and for the six opinions are depicted in FIG. 6.

[10] = system: Malondialdehyde (MDA); assay: Anti-oxidant activity: malondialdehyde (MDA), lipid peroxidation
Text: as §1
Malondialdehyde (MDA), accounting for the degree of lipid peroxidation, a representative marker of oxidation stress, was quantified.

[11] = system: TNF-α; assay: Level of inflammatory cytokine TNF-α; details: G3 to G6 (12.5-100 mg/kg), FIG. 9, equivalency to control G7
Protocol: as §1, §2

[12] = system: total antioxidant concentration; assay: Anti-oxidant activity: total antioxidant concentrations in tissues; details: G3 (12.5 mg/kg) compared to the DSS-treated group
Text: as §1
Its amount was discovered to decrease at a low concentration of S-allyl-L-cysteine as in G3 and G4, with statistical significance.

O=C(NC(Cc1cc(=O)[nH]c2ccccc12)C(=O)O)c1ccc(Cl)cc1 (stereo not drawn) [Control, Rebamipide, reference compound]
Body weight (mean ± standard deviation) ([1]; G7, Control 50 mg/kg, 2012.01.12, at the time of DSS treatment): 23.2 ± 1.2 g
Body weight (mean ± standard deviation) ([1]; G7, Control 50 mg/kg, 2012.01.18, at autopsy after 7 days DSS 2.5 wt %): 21.1 ± 0.9 g
Side effects (hypersensitive reactions, nausea, vomiting, headache, etc.) ([2]; control G7, extended test period of 12 weeks): side effects detected
COX-2 expression in the fascial tissue beneath the mucosal tissue ([3]; G7 (Control 50 mg/kg), immunofluorescence): did not effectively do so
COX-2 expression in mucosal tissues ([3]; G7 (Control 50 mg/kg), immunofluorescence, FIG. 13): inhibited COX-2 expression in mucosal tissues

C=CCSC[C@H](N)C(=O)O [Example 1, S-allyl-L-cysteine]
Expression level of IL-1β [4]: decreased expression levels
Therapeutic effects (DAI, colon length) compared with conventional agent (G7) ([5]; G3 to G6 (12.5-100 mg/kg) vs G7 (Control 50 mg/kg)): equivalent to or higher than those of the conventional agent
Disease Activity Index (DAI) score ([5]; G3 to G6 (12.5-100 mg/kg), DSS 2.5 wt %, end of test, FIG. 3): score low in DAI
Colon length [6]: recovered the colon length
Body weight (mean ± standard deviation) ([1]; G3, Ex. 1 12.5 mg/kg, 2012.01.12, at the time of DSS treatment, 12.5 mg/kg): 22.1 ± 2.4 g
Body weight (mean ± standard deviation) ([1]; G3, Ex. 1 12.5 mg/kg, 2012.01.18, at autopsy after 7 days DSS 2.5 wt %, 12.5 mg/kg): 20.3 ± 2.2 g
Body weight (mean ± standard deviation) ([1]; G4, Ex. 1 25 mg/kg, 2012.01.12, at the time of DSS treatment, 25 mg/kg): 22.8 ± 0.8 g
Body weight (mean ± standard deviation) ([1]; G4, Ex. 1 25 mg/kg, 2012.01.18, at autopsy after 7 days DSS 2.5 wt %, 25 mg/kg): 20.5 ± 0.9 g
Body weight (mean ± standard deviation) ([1]; G5, Ex. 1 50 mg/kg, 2012.01.12, at the time of DSS treatment, 50 mg/kg): 22.9 ± 1.1 g
Body weight (mean ± standard deviation) ([1]; G5, Ex. 1 50 mg/kg, 2012.01.18, at autopsy after 7 days DSS 2.5 wt %, 50 mg/kg): 21.4 ± 0.8 g
Body weight (mean ± standard deviation) ([1]; G6, Ex. 1 100 mg/kg, 2012.01.12, at the time of DSS treatment, 100 mg/kg): 22.2 ± 1.3 g
Body weight (mean ± standard deviation) ([1]; G6, Ex. 1 100 mg/kg, 2012.01.18, at autopsy after 7 days DSS 2.5 wt %, 100 mg/kg): 21.6 ± 0.7 g
Expression level of IL-12 [7]: decreased expression levels
Expression level of IL-6 [8]: decreased expression levels
Side effect of weight gain ([2]; G3 to G6 (12.5-100 mg/kg)): not cause the side effect of weight gain
Side effects (hypersensitive reactions, nausea, vomiting, headache, etc.) ([2]; G3 to G6, extended test period of 12 weeks): did not suffer from the side effects
Rehabilitation of mucosal tissues by total pathologic score ([9]; G3 (12.5 mg/kg), FIG. 6): best rehabilitation of mucosal tissues
Histology of intestinal mucosa tissues (H&E) ([9]; G3 to G6 (12.5-100 mg/kg), FIG. 5): recovered the intestinal mucosa tissues to a normal state
Total pathologic score (H&E) ([9]; G3 to G6 (12.5-100 mg/kg), FIG. 6): lowered the pathologic score
Therapeutic effect (pathologic score) compared with control G7 ([9]; G3 to G6 vs G7 (Control 50 mg/kg)): equivalent to or higher than that of the control G7
Amount of malondialdehyde (MDA) ([10]; G3 and G4 (12.5 and 25 mg/kg), with statistical significance): decrease
Level of MDA ([10]; G3 to G6 (12.5-100 mg/kg), equivalency or superiority to control G7): decreased the level of MDA
Expression level of TNF-α [11]: decreased expression levels
Total antioxidant concentration in tissues [12]: increase in antioxidant concentration
COX-2 expression level ([3]; G3 (12.5 mg/kg)): significantly increased
COX-2 expression levels in mucosal tissues ([3]; G3 to G6 (12.5-100 mg/kg), immunofluorescence, FIG. 13): reduced COX-2 expression levels
COX-2 expression in the fascial tissue ([3]; G4 to G6 (25-100 mg/kg), immunofluorescence): inhibited COX-2 expression even in the fascial tissue
COX-2 expression level ([3]; other test groups (G4 to G6, 25-100 mg/kg)): significantly decrease
